Data: US11357778B2, “Antagonist of the fibroblast growth factor receptor 3 (FGFR3) for use in the treatment or the prevention of skeletal disorders linked with abnormal activation of FGFR3” (INSTITUT NATIONAL DE LA SANTE ET DE LE RECHERCHE MEDICALE …, priority 2011, dated 2022)

How the values were obtained:
[1] = tested on: Fgfr3^Y367C/+ growth plate; experiment: Histology of cultured femur growth plate (HES staining, type X collagen in situ hybridization); type: cell-based, mouse
Procedure: Limb explants were fixed after culture in 4% paraformaldehyde at 4° C., and placed in a staining solution for 45-60 minutes (0.05% Alizarin Red, 0.015% Alcian Blue, 5% acetic acid in 70% ethanol) or embedded in paraffin. Serial […] were stained with Hematoxylin-Eosin using standard protocols for histological analysis or were subjected to in situ hybridization or immunohistochemical staining. In situ hybridization using [S35]-UTP labeled antisense ribopropes for collagen X was carried out as previously described (Delezoide et al., Hum Mol Genet, 6, 1899-1906, 1997). Sections were counterstained with Hematoxylin. For immunohistochemistry, sections were stained with antibodies specific to FGFR3 (1:250 dilution; Sigma), anti PCNA (1:1000 dilution; Abcam), anti-KI67 (1:300; Abcam), anti-cyclin D1 (1:80 dilution; Santa Cruz) and anti-p57 (1:100 dilution; Santa Cruz) using the Dako Envision kit. Images were captured with an Olympus PD70-IX2-UCB microscope. […] The inventors evaluated the impact of A31 on the growth plate (FIG. 4A). […] Histological examinations using HES staining (FIG. 10A) and type X collagen labeling (FIG. 10B) were also carried out.

[2] = tested on: FGFR3Y373C, FGFR3K650E, FGFR3K650M, FGFR3G380R; experiment: Constitutive FGFR3 phosphorylation in HEK-293 cells transiently expressing activated FGFR3; type: cell-based, human; conditions: 10 μM, data not shown
Fgfr3^Y367C/+ femurs = experiment: Ex vivo culture of E16.5 embryonic femur explants, bone length; type: cell-based, mouse; conditions: for gain in femur length: Fgfr3^Y367C/+ femurs
Procedure: Six sets of ex vivo experiments were performed. Femur embryos at day E16.5 from WT (n=6) and Fgfr3^Y367C/+ (n=6) mice were used and incubated for 5 days in DMEM medium with antibiotics and 0.2% BSA (Sigma) supplemented with A31 or PD173074 (as control) at a concentration of 2 mM. Right femur was cultured in supplemented medium and compared with the left one cultured in control medium. Rib cage from E16.5 WT and Fgfr3^Y367C/+ mice embryos were isolated and stripped of all soft tissues. Primary chondrocytes were obtained from rib cages. The ribs were incubated in a pronase solution (Roche; 2 mg/ml) followed by a digestion in Collagenase A (Roche; 3 mg/ml) at 37° C. Isolated chondrocytes were plated out at a density of 2.105 cells in 6-well plates containing DMEM supplemented with 10% FCS and antibiotics, and were allowed to reach subconfluency. Cultures were supplemented with A31 or PD173074 (as control) at a concentration of 2 mM. Cells were treated with A31 (2 mM) PD173074 (as control) in serum-free DMEM supplemented with 0.2% BSA and harvested after 24 h. To establish the effect of the inhibitors, the right femur was cultured in supplemented medium and compared with the left one cultured in control medium The bone length was measured at the beginning (before treatment) and at the end of time course. Each experiment was repeated at least three times. The genotype of WT, Fgfr3^Y367C/+ and Fgfr3^−/− mice were determined by PCR of tail DNA as previously described (Pannier et al., Biochim Biophys Acta, 1792: 140-147, 2009). All experimental procedures and protocols were approved by the Animal Care and Use Committee.
Fgfr3^Y367C/+ mice display reduced length of long bones, broad femurs, a narrow trunk, short ribs and a slightly dome-shaped skull, closely resembling achondroplasia (FIGS. 3A and B). The inventors analyzed the effects of A31 on endochondral ossification in Fgfr3^Y367C/+ mice by using an ex vivo culture system for embryonic day 16.5 (E16.5) limb explants. […] After 5 days of culture, the increase in length of the treated mutant femurs was 2.6 times more than for that of WT.
Thus, embryonic femur explants were co-incubated with 150 nM of PD173074 for 5 days.
Embryonic femur explants were co-incubated 100 nM (10^−7M) or 1 μM (10^−6M) of BGJ-398 for 6 days.

Fgfr3^Y367C/+ mice = experiment: Dwarfism mouse model, X-rays analysis of skeleton and body growth; type: in vivo; conditions: 10 days
Procedure: The effectiveness of PD173074 and BGJ-398 in attenuating the dwarfism phenotype of Fgfr3^Y367C/+ mice was assessed in viva. The mice were seven days of age at treatment initiation and received daily subcutaneous administration of 4.00 mg/kg PD173074 or of 1.66 mg/kg BGJ-398 for 10 days.
The effectiveness of PD173074 in attenuating the dwarfism phenotype of Fgfr3^Y367C/+ mice was assessed in vivo. The mice were seven days of age at treatment initiation and received daily subcutaneous administrations of 4.00 mg/kg of PD173074 for 10 days.
Seven days old mice received daily subcutaneous administrations of 1.66 mg/kg of BGJ-398 for 10 days.

For `CCN1CCN(c2ccc(Nc3cc(N(C)C(=O)Nc4c(Cl)c(OC)cc(OC)c4Cl)ncn3)cc2)CC1` [BGJ-398, reference compound], the “chondrocyte morphology (HES staining)” value ([1]; BGJ-398 10^−6M) was “larger and more spherical”, the “size of the hypertrophic zone of the femur explants” value ([1]; BGJ-398, Fgfr3^Y367C/+ femur explants) was “increases” and the “type X collagen expression (in situ hybridization)” value ([1]; BGJ-398, Fgfr3^Y367C/+ growth plate) was “enhanced type X collagen expression”. The “constitutive FGFR3 receptor phosphorylation” value [2] was “abolished receptor phosphorylation”, the “femur size over concentration (in words)” value (Fgfr3^Y367C/+ femurs; BGJ-398 100 nM to 1 μM, 6 days) was “concentration-dependent increase” and the “gain in femur length” value (Fgfr3^Y367C/+ femurs; BGJ-398 100 nM, 6 days) was 71.86%. For the same molecule, the “dwarfism phenotype (X-rays)” value (Fgfr3^Y367C/+ mice; BGJ-398 1.66 mg/kg daily subcutaneous, from 7 days of age) was “Dramatic phenotypic changes”.
In the case of `CCN(CC)CCCCNc1ncc2cc(-c3cc(OC)cc(OC)c3)c(NC(=O)NC(C)(C)C)nc2n1` [PD173074], the “gain in femur length” value (Fgfr3^Y367C/+ femurs; PD173074 150 nM, 5 days) is reported as 77%, the body size (Fgfr3^Y367C/+ mice; PD173074 4.00 mg/kg daily subcutaneous) is reported as “overall increase in body size” and the “dwarfism phenotype (X-rays, clinical features)” value (Fgfr3^Y367C/+ mice; PD173074 4.00 mg/kg daily subcutaneous, from 7 days of age) is reported as “Amelioration in key relevant achondroplasia clinical features”.
